pEC50: −log10 of the molar value.
Assays:
[1] = molecular target: T1, Stimulator of interferon genes protein (Homo sapiens, UniProt Q86WV6); experiment: Agonist activity at STING R71H/G230A/R293Q mutant (unknown origin) expressed in digitonin -permeabilized HEK293T cells preincubated for 30 mins followed by washout and measured after 5 hrs by Bright-glo luciferase assay
[2] = molecular target: T1, Stimulator of interferon genes protein; experiment: Agonist activity at STING G230A/R293Q mutant (unknown origin) expressed in digitonin -permeabilized HEK293T cells preincubated for 30 mins followed by washout and measured after 5 hrs by Bright-glo luciferase assay

T1 sequence (Q86WV6 whole entry): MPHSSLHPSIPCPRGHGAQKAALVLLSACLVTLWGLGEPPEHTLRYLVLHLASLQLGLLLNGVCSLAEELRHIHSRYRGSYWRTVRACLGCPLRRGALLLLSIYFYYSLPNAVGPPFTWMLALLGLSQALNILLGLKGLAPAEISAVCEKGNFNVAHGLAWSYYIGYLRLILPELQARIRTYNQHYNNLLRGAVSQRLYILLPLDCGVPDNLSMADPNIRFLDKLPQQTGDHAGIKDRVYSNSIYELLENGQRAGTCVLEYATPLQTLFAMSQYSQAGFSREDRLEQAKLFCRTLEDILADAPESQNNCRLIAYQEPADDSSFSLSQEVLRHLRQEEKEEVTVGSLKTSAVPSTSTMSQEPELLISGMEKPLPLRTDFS

**Q.** `Nc1ncnc2c1ncn2[C@@H]1O[C@@H]2C=CP(=O)(O)O[C@H]3[C@@H](F)[C@H](n4cnc5c(N)ncnc54)O[C@@H]3COP(=O)(O)O[C@H]2[C@H]1F` was tested. Which pEC50 [1] did it give?
**A.** The pEC50 was 7.00.

**Q.** What about the pEC50 [2] of the same molecule?
**A.** The pEC50 was 7.00.
